According to patent publication US20260234651A1, “ACETYL-COA CARBOXYLASE INHIBITOR RESISTANT SORGHUM” (PIONEER HI-BRED INTERNATIONAL, INC., priority 2023, published 2026):

Tests used:
Assay type in all cases: in vivo, Sorghum bicolor
[1] = tested on: Male Sterile 1_WT; experiment: Field tolerance test, Quizalofop-P-ethyl (Assure II) spray; settings: 0 copies, 1-9 score, 1 dead, 9 no visible response
Protocol: (§1) The ACCase edited plants generated in Example 1 were outcrossed with 3 male sterile lines in a controlled environment. The F1 plants which contain a single copy of the W2032C edit in the ACCase gene and the edited elite inbred line containing 2 copies of the W2032C ACCase (hereinafter referred to as […]) along with the non-edited elite inbred (wt control) and the 3 male sterile lines were tested in the field for efficacy. Four short rows, each row with ~100 seedlings, were planted for each variety in replicate. Once the plants reached the 5-6 leaves stage, replicate 1 for each variety was treated with a 1× dose of Assure II (Quizalofop-P-ethyl) and replicate 2 for each variety was treated with a 2× dose of Assure II (Quizalofop-P-ethyl). Plants were then scored for tolerance at 7- and 14-days post application. The plots were scored by giving a 1-9 score to each plot, with 1 being dead and 9 no visible response.
(§2) The PH2545MW_W2032C was given score of 7 with 1× dose of Quizalofop-P-ethyl application (Table 4), as some twisting of the leaves due to herbicide injury was observed, however, after a week or so the twisting of the leaves may not be visible anymore because they were growing out of it, which may be indicated by the score change from 5 to 6 at day 7 and day 14 post 2× dose of Quizalofop-P-ethyl application.

[2] = tested on: elite inbred_WT (non-edited elite inbred, wt control); experiment: as above; settings: 0 copies W2032C, 1-9 score, 1 dead, 9 no visible response
Protocol: as §1, §2

[3] = tested on: F1 Hybrid 2_W2032C (single copy of W2032C ACCase); experiment: as above; settings: 1 copy, 1-9 score, 1 dead, 9 no visible response
Protocol: as §1, §2

[4] = tested on: Male Sterile 2_WT; experiment: as above; settings: 0 copies, 1-9 score, 1 dead, 9 no visible response
Protocol: as §1, §2

[5] = tested on: Male Sterile 3_WT; experiment: as above; settings: 0 copies, 1-9 score, 1 dead, 9 no visible response
Protocol: as §1, §2

[6] = tested on: F1 Hybrid 1_W2032C (single copy of W2032C ACCase); experiment: as above; settings: 1 copy, 1-9 score, 1 dead, 9 no visible response
Protocol: as §1, §2

[7] = tested on: elite inbred_W2032C (2 copies of W2032C ACCase); experiment: as above; settings: for 7-day Post Application Score / 14-day Post Application Score: elite inbred_W2032C, 2 copies
Protocol: as §1, §2

[8] = tested on: F1 Hybrid 3_W2032C (single copy of W2032C ACCase); experiment: as above; settings: 1 copy, 1-9 score, 1 dead, 9 no visible response
Protocol: as §1, §2

[9] = tested on: control plants without the W2032C ACCase edit; experiment: Field tolerance test, summary in words; settings: all plants dead at 10-14 days post spray
Protocol: as §1

[10] = tested on: three F1 hybrids with a single copy of the W2032C ACCase edit; experiment: Field tolerance test, summary in words; settings: 1x or 2x Assure II
Protocol: as §1

[11] = tested on: wild-type control plants; experiment: Spray test of T1 plants with quizalofop-p-ethyl; settings: 7 fl. ounce (0.034-0.083 lb ai), all died
Description: (§3) ACCase edited T1 seeds were planted in flats, all seeds germinated and were heathy looking. Additionally, they were all able to produce T2 seeds with high seed count setting. Nineteen homozygous ACCase edited T1 plants at the 8-leaf stage were sprayed with quizalofop-p-ethyl at a rate of 7 fl. ounce (0.034-0.083 lb ai), which is the average dose from the Assure II label. […] A subset of the T1 plants after the spray test were kept to maturity and all produced T2 seeds with good seed setting. In contrast, the wild-type control plants were all susceptible to the quizalofop-p-ethyl spray and died.

[12] = tested on: homozygous ACCase edited T1 plants; experiment: Spray test of T1 plants with quizalofop-p-ethyl; settings: all 19 homozygous ACCase edited T1 plants, 8-leaf stage, 7 fl. ounce (0.034-0.083 lb ai)
Description: as §3

[13] = 1x dose, 1-9 score, 1 dead, 9 no visible response
[14] = 2x dose, 1-9 score, 1 dead, 9 no visible response

With `CCOC(=O)[C@@H](C)Oc1ccc(Oc2cnc3cc(Cl)ccc3n2)cc1` [Quizalofop-P-ethyl] the “7-day Post Application Score” value ([1]; 1x dose) was 2, the “14-day Post Application Score” value ([1]; 1x dose) was 1 and the “7-day Post Application Score” value ([1]; 2x dose) was 2. The “14-day Post Application Score” value ([1]; 2x dose) was 1, the “7-day Post Application Score” value ([2]; 1x dose) was 3 and the “14-day Post Application Score” value ([2]; 1x dose) was 1. For the same molecule, the “7-day Post Application Score” value ([2]; 2x dose) was 3, the “14-day Post Application Score” value ([2]; 2x dose) was 1 and the “7-day Post Application Score” value ([3]; 1x dose) was 5. For the same molecule, the “14-day Post Application Score” value ([3]; 1x dose) was 4, the “7-day Post Application Score” value ([3]; 2x dose) was 5 and the “14-day Post Application Score” value ([3]; 2x dose) was 3. The “7-day Post Application Score” value ([4]; 1x dose) was 2, the “14-day Post Application Score” value ([4]; 1x dose) was 1 and the “7-day Post Application Score” value ([4]; 2x dose) was 2. The “14-day Post Application Score” value ([4]; 2x dose) was 1, the “7-day Post Application Score” value ([5]; 1x dose) was 3 and the “14-day Post Application Score” value ([5]; 1x dose) was 1. The “7-day Post Application Score” value ([5]; 2x dose) was 2, the “14-day Post Application Score” value ([5]; 2x dose) was 1 and the “7-day Post Application Score” value ([6]; 1x dose) was 5. The “14-day Post Application Score” value ([6]; 1x dose) was 4, the “7-day Post Application Score” value ([6]; 2x dose) was 4 and the “14-day Post Application Score” value ([6]; 2x dose) was 3. For the same molecule, the “field tolerance score (day not stated)” value ([7]; PH2545MW_W2032C, 1x dose, some twisting of the leaves, 1-9 score, 1 dead, 9 no visible response) was 7, the “7-day Post Application Score” value [7, 13] was 7 and the “14-day Post Application Score” value [7, 13] was 7. For the same molecule, the “7-day Post Application Score” value [7, 14] was 5, the “14-day Post Application Score” value [7, 14] was 6 and the “tolerance to the herbicide in the field” value ([7]; inbred_W2032C plants, 1x or 2x Assure II at 5-6 leaves stage) was “tolerance”. The “7-day Post Application Score” value ([8]; 1x dose) was 5, the “14-day Post Application Score” value ([8]; 1x dose) was 3 and the “7-day Post Application Score” value ([8]; 2x dose) was 5. The “14-day Post Application Score” value ([8]; 2x dose) was 4, the “tolerance to the herbicide in the field” value [9] was “no tolerance” and the “tolerance to the herbicide in the field” value [10] was “some tolerance”. For the same molecule, the “response of plants to the herbicide spray” value [11] was “susceptible” and the “response of plants to the herbicide spray” value [12] was “resistance (tolerance)”.
